In paper PMC10392864, “Chukrasia tabularis limonoid plays anti-inflammatory role by regulating NF-κB signaling pathway in lipopolysaccharide-induced macrophages” (Food & Nutrition Research, 2023):
Values joined by “and” are separate entries in the source; they are usually repeats but may differ in a detail not shown here. Equal entries are not always repeated.

Tests used:
[1] = Cytotoxicity, SRB method, MCF-7; type: cell-based, human; conditions: human, MCF-7 (human breast) cells
Experimental: (§1) Huh-7 (hepatoma), MCF-7 (human breast), KB (oral epithelial), Hela (cervical), H460 (lung), A-549 (lung), and HepG2 (hepatocellular) cancer cell lines (provided by Shanghai Cell Bank) were maintained in RPMI 1640 at 37 ℃, supplemented with 10% FBS. Cytotoxicity was determined by the SRB method, with 5-fluorouracil (5-FU) as a positive control. The IC50 value was calculated using the GraphPad prism program.

[2] = Cytotoxicity, SRB method, Huh-7; type: cell-based, human; conditions: human, Huh-7 (hepatoma) cells
Experimental: as §1

[3] = Cytotoxicity, SRB method, HepG2; type: cell-based, human; conditions: human, HepG2 (hepatocellular) cells
Experimental: as §1

IKKα = assay: Western blot, IKKα in LPS-treated macrophages; type: cell-based; conditions: Fig. 4
Experimental: (§2) Western blot analysis was performed to observe the activities of limonin 2 on NF-κB P65, JAK, STAT, IKBα, IKKα, iNOS and eNOS protein levels. Macrophages were dispersed in 6 well plates for 24 h. After incubation, the cells were processed by HFPS and treated with LPS for 24 h. After treatment, cells were harvested and lysed. Western blot analysis was based on the methods described previously ([24]).
(§3) The NF-κB signaling cascade plays an important role in the adjustment of inflammation ([43], [44]). The expression of NF-κB P65, IKB, and IKKα were measured by Western blot to investigate the anti-inflammatory mechanism of limonin 2. […] Limonin 2 inhibited the phosphorylation and degradation of IKBα (Fig. 4A, D and E) and IKKα (Fig. 4A, F and G).

NF-κB p-P65 = assay: Western blot, NF-κB p-P65 in LPS-treated macrophages; type: cell-based; conditions: Fig. 4
Experimental: as §2, §3

STAT3 = assay: Western blot, STAT3 in LPS-treated macrophages; type: cell-based; conditions: LPS-treated RAW264.7 cells, Fig. 5
Experimental: as §2
(§4) To study the effect of limonin 2 on the STAT signaling cascades of LPS-treated macrophage, the levels of JAK2 and STAT3 was measured ([45]).

TNF-α = TNF-α production in LPS-induced macrophages, ELISA; type: cell-based; conditions: compound 2 at 2.3 and 9.2 μmol/L, LPS 1 μg/mL, 24 h, Fig. 3A
Experimental: (§5) After 8 h of pre-incubation under 5% CO2 at 37°C, limonin 2 was added to the well plate, respectively, for 12 h. Then the cell of administration group and model group were induced with LPS (2 µg/mL) and the control group was treated with DMSO as contrast. The cell supernatants of samples were collected to detect the content of IL-6 and TNF-α by ELISA according to manufacturer protocol. And the normal range of IL-6 and TNF-αELISA kits is 3.75–120 pg/mL and 20–640 pg/mL, respectively.
(§6) Fig. 3 Effects of compound 2 on the production of TNF-α, NO and IL-6 in LPS-induced macrophages. The macrophages were incubated with LPS (1 μg/mL) and treated with compound 2 (2.3 and 9.2 μmol/L) for 24 h. Indomethacin (INM) was used as the positive control. (A) The levels of TNF-α, (B) NO, and (C) IL-6 in the supernatant were assayed using ELISA kits. All values given are the mean ± SEM. *P <0.05, **P <0.01 compared with the LPS group.

[4] = Cytotoxicity, SRB method, Hela; type: cell-based, human; conditions: human, Hela (cervical) cells
Experimental: as §1

IL-6 = IL-6 production in LPS-induced macrophages, ELISA; type: cell-based; conditions: compound 2 at 2.3 and 9.2 μmol/L, LPS 1 μg/mL, 24 h, Fig. 3C
Experimental: as §5, §6

RAW264.7 cells = assay: RAW264.7 cell viability, SRB assay; type: cell-based
Experimental: The cytotoxicity of limonin 2 to RAW264.7 cells was detected by SRB assay. […] Therefore, compound 2 of 0–20 μm was used in subsequent experiments to avoid the influence of cytotoxic and anti-inflammatory effect detection.
Fig. 2 Effect of compound 2 on RAW264.7 cells viability. RAW264.7 cells were treated by assigned concentration of compound 2 or DMSO for 24 h. The data are expressed as the mean ± SEM (n = 3). The cells viability (%) = (ODcompound 2 – ODDMSO)/ODDMSO ×100. *P < 0.05,**P < 0.01 compared with control cells treated by DMSO. Statistical differences were analyzed by unpaired t-test.

eNOS = assay: Western blot, eNOS in LPS-treated macrophages; type: cell-based; conditions: LPS-stimulated macrophages, Fig. 6
Experimental: as §2
(§7) To study the effect of limonin 2 on eNOS signaling cascade on LPS treated macrophages ([46]), the level of eNOS was measured. The upregulation of iNOS expression in LPS-treated macrophage was observed (Fig. 6A and B). Compound 2 inhibited the expression of iNOS stimulated by LPS in macrophage. At the same time, downregulation of eNOS protein expression was also found in LPS-stimulated macrophages (Fig. 6A and C).

[5] = Cytotoxicity, SRB method, H460; type: cell-based, human; conditions: human, H460 (lung) cells
Experimental: as §1

IKBα = assay: Western blot, IKBα in LPS-treated macrophages; type: cell-based; conditions: Fig. 4
Experimental: as §2, §3

JAK2 = assay: Western blot, JAK2 in LPS-treated macrophages; type: cell-based; conditions: LPS-treated RAW264.7 cells, Fig. 5
Experimental: as §2, §4

[6] = tested on: LPS-induced NO production in RAW264.7 cells; assay: LPS-induced NO production in RAW264.7 cells (Griess reaction); type: cell-based
Experimental: The inhibitory activities of compounds 1–16 on LPS stimulated macrophages was determined by Griess reaction. The NO content was detected by the NO kit according to the protocol described earlier ([23]). RAW264.7 cells obtained from the China Center for Cultivated Studies (Shanghai, China) were maintained in DMEM containing 10% FBS, and under 5% CO2 at 37°C. Briefly, the cells were seeded in a 96-well plate (1 × 10^5 cells/well), after 8 h of pre-incubation under 5% CO2 at 37°C, compounds 1–16 were added to the well plate, respectively, for 12 h. […] The supernatant of the cell culture were collected 24 h later.

iNOS = assay: Western blot, iNOS in LPS-treated macrophages; type: cell-based; conditions: Fig. 6
Experimental: as §2, §7

[7] = Cytotoxicity, SRB method, KB; type: cell-based, human; conditions: human, KB (oral epithelial) cells
Experimental: as §1

[8] = Cytotoxicity, SRB method, A549; type: cell-based, human; conditions: human, A-549 (lung) cells
Experimental: as §1

Compound: CCC(=O)OC1C2(O)C(OC(=O)C=CC(C)C)C3(C)CC24OC2(C)OC15C1CC(=O)OC(C6=CC(O)OC6=O)C1(C)CCC5(O2)C4(C)C3CC(=O)OC (centres unmarked) [Compound 2, Chukrasin F]
- IC50 [1]: 23.4 ± 5.81 µM
- IC50 [2]: 72.1 ± 13.5 µM
- IC50 [3]: 69.4 ± 10.6 µM
- phosphorylation and degradation of IKKα (in words) (IKKα): inhibited
- expression of NF-κB p-P65 (in words) (NF-κB p-P65): downregulates
- expression level of STAT3 (in words) (STAT3): notably reduced
- production of TNF-α in LPS-treated macrophages (in words) (TNF-α): notably inhibited
- IC50 [4]: 33.2 ± 8.41 µM
- production of IL-6 in LPS-treated macrophages (in words) (IL-6): notably inhibited
- viability of RAW264.7 cells (in words) (RAW264.7 cells; compound 2 at 0–20 μm, within 24 h): not notably affected
- relative survival rate of RAW264.7 cells (RAW264.7 cells; limonin 2 at 5 ~ 200 μM (seven rising concentrations, not listed singly), 24 h, SRB): 100.7% and 96.3% and 93.9% and 88.0% and 76.4% and 64.4% and 56.7%
- eNOS protein expression (in words) (eNOS): completely restored
- IC50 [5]: 60.8 ± 6.96 µM
- phosphorylation and degradation of IKBα (in words) (IKBα): inhibited
- expression level of JAK2 (in words) (JAK2): notably reduced
- IC50 ([6]; Mus musculus, RAW264.7 cells, LPS 2 µg/mL, supernatant after 24 h, read-out: IC50, inhibitory activity on LPS-induced NO production in RAW264.7 cells): 4.58 ± 0.72 µM
- production of NO in LPS-treated macrophages (in words) ([6]; compound 2 at 2.3 and 9.2 μmol/L, LPS 1 μg/mL, 24 h, Fig. 3B): notably inhibited
- expression of iNOS stimulated by LPS (in words) (iNOS): inhibited
- IC50 [7]: 39.2 ± 2.17 µM
- IC50 [8]: 54.7 ± 10.1 µM
